Laboratory results from patent publication US20240228468A1, “N-(6-((OCTAHYDROCYCLOPENTA[C]PYRROL-5-YI)AMINO)PYRIDAZIN-3-YL)PHENYL)CARBOXAMIDE AND (6- ((OCTAHYDROCYCLOPENTA[C]PYRROL-5-YL)AMINO)PYRIDAZIN-3-YL)BENZAMIDE DERIVATIVES AS MACHR M4 ANTAGONISTS FOR THE TREATMENT OF NEURODEGENERATIVE DISORDERS” (Vanderbilt University, priority 2021, published 2024).
Read-outs that look alike come from different tables or passages of the source.

Molecular target: T1, Human M4 (Homo sapiens, UniProt P08173)
T1 construct: expressed in transfected cells; host or cells: CHO-K1 (ATCC), co-transfected with chimeric G protein Gqi5
T1 sequence (P08173 1-479): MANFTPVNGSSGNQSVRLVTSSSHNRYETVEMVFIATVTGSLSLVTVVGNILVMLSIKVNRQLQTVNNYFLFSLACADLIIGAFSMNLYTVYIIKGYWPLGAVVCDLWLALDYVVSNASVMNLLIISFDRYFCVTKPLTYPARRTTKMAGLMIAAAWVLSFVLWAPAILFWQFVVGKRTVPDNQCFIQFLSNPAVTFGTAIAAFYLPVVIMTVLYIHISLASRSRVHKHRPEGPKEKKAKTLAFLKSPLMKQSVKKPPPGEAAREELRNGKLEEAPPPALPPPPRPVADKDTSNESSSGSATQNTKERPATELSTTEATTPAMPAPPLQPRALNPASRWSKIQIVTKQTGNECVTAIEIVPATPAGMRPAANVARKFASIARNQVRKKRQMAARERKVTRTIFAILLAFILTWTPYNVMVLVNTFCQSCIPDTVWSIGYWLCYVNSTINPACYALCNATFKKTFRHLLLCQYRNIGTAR
Test: mAChR M4 cell-based functional assay (calcium flux, antagonism of EC80 acetylcholine response)
Settings: for IC50: concentration-dependent decrease of the response elicited by an EC80 concentration of acetylcholine
Experimental: Human or rat M4 cDNA, along with the chimeric G protein Gqi5, were transfected into Chinese hamster ovary (CHO-K1) cells purchased from the American Type Culture Collection using Lipofectamine2000. M4/Gqi5/CHO cells were grown in Ham's F-12 medium containing 10% heat-inactivated fetal bovine serum (FBS), 20 mM HEPES, 500 μg/mL G418 sulfate, and 200 μg/mL Hygromycin B.
For high throughput measurement of agonist-evoked increases in intracellular calcium, CHO-K1 cells stably expressing muscarinic receptors were plated in growth medium lacking G418 and hygromycin at 15,000 cells/20 μL/well in Greiner 384-well black-walled, tissue culture (TC)-treated, clear-bottom plates (VWR). Cells were incubated overnight at 37° C. and 5% CO2. The next day, cells were washed using an ELX 405 (BioTek) with assay buffer; the final volume was then aspirated to 20 μL. Next, 20 μL of a 2.3 μM stock of Fluo-4/acetoxymethyl ester (Invitrogen, Carlsbad, CA), prepared as a 2.3 mM stock in DMSO and mixed in a 1:1 ratio with 10% (w/v) Pluronic F-127 and diluted in assay buffer, was added to the wells and the cell plates were incubated for 50 min at 37° C. and 5% CO2. Dye was removed by washing with the ELX 405 and the final volume was aspirated to 20 μL. Compound master plates were formatted in a 10 point concentration-response curve (CRC) format (1:3 dilutions) in 100% DMSO with a starting concentration of 10 or 1 mM using a BRAVO liquid handler (Agilent). Test compound CRCs were then transferred to daughter plates (240 nL) using the Echo acoustic plate reformatter (Labcyte, Sunnyvale, CA) and then diluted into assay buffer (40 μL) to a 2× stock using a Thermo Fisher Combi (Thermo Fisher Scientific, Waltham, MA).
Calcium flux was measured using the Functional Drug Screening System (FDSS) 6000 or 7000 (Hamamatsu Corporation, Tokyo, Japan) as an increase in the fluorescent static ratio. Compounds were applied to cells (20 μL, 2×) using the automated system of the FDSS at 2 seconds into the protocol and the data were collected at 1 Hz. At 143 s, 10 μL of an EC20 concentration of the muscarinic receptor agonist acetylcholine was added (5×), followed by the addition of 12 μL of an EC80 concentration of acetylcholine at the 268 s time point (5×). Agonist activity was analyzed as a concentration-dependent increase in calcium mobilization upon compound addition. Positive allosteric modulator activity was analyzed as a concentration-dependent increase in the EC20 acetylcholine response. Antagonist activity was analyzed as a concentration-dependent decrease in the EC80 acetylcholine response; for the purposes of the tables herein, an IC50 (inhibitory concentration 50) was calculated as a concentration-dependent decrease of the response elicited by an EC80 concentration of acetylcholine. Concentration-response curves were generated using a four-parameter logistical equation in XLFit curve fitting software (IDBS, Bridgewater, NJ) for Excel (Microsoft, Redmond, WA) or Prism (GraphPad Software, Inc., San Diego, CA) or the Dotmatics software platform (Dotmatics, Bishop's Stortford, UK).
Compounds were synthesized as described above. Activity (IC50 and Emin) was determined in the mAChR M4 cell-based functional assay as described above and the data are shown in Table 2.

[1] = M4/Gqi5/CHO-K1 cells, % ACh maximum at 30 μM, read-out: Human M4 Emin (% ACh maximum at 30 μM)
[2] = CHO-K1, read-out: Human M4 Emin (% ACh maximum at 30 μM)

SMILES	remaining activity at 30 µM [1] [%]	IC50 (M4/Gqi5/CHO-K1 cells) [nM]	remaining activity at 30 µM [2] [%]
O=C(Nc1cc(F)c(F)c(-c2ccc(N[C@H]3C[C@@H]4CN(CC5CCOCC5)C[C@@H]4C3)nn2)c1)C1(C(F)(F)F)CC1 [Compound A11, N-(3,4-difluoro-5-(6-(((3aR,5s,6aS)-2-((tetrahydro-2H-pyran-4-yl)methyl)octahydrocyclopenta[c]pyrrol-5-yl)amino)pyridazin-3-yl)phenyl)-1-(trifluoromethyl)cyclopropane-1-carboxamide]	3	66	
O=C(Nc1cc(F)c(F)c(-c2ccc(N[C@H]3C[C@@H]4CN(CC5CCOCC5)C[C@@H]4C3)nn2)c1)C1(F)CC1 [Compound A12, N-(3,4-difluoro-5-(6-(((3aR,5s,6aS)-2-((tetrahydro-2H-pyran-4-yl)methyl)octahydrocyclopenta[c]pyrrol-5-yl)amino)pyridazin-3-yl)phenyl)-1-fluorocyclopropane-1-carboxamide]	4	85	
O=C(Nc1cc(F)c(F)c(-c2ccc(N[C@H]3C[C@@H]4CN(CC5CCOCC5)C[C@@H]4C3)nn2)c1)C1(O)CCC1 [Compound A13, N-(3,4-difluoro-5-(6-(((3aR,5s,6aS)-2-((tetrahydro-2H-pyran-4-yl)methyl)octahydrocyclopenta[c]pyrrol-5-yl)amino)pyridazin-3-yl)phenyl)-1-hydroxycyclobutane-1-carboxamide]	4	64	
O=C(Nc1cc(F)c(F)c(-c2ccc(N[C@H]3C[C@@H]4CN(CC5CCOCC5)C[C@@H]4C3)nn2)c1)C1CC(F)(F)C1 [Compound A14, N-(3,4-difluoro-5-(6-(((3aR,5s,6aS)-2-((tetrahydro-2H-pyran-4-yl)methyl)octahydrocyclopenta[c]pyrrol-5-yl)amino)pyridazin-3-yl)phenyl)-3,3-difluorocyclobutane-1-carboxamide]	4	160	
O=C(Nc1cc(F)c(F)c(-c2ccc(N[C@H]3C[C@@H]4CN(CC5CCOCC5)C[C@@H]4C3)nn2)c1)C(F)F [Compound A15, N-(3,4-Difluoro-5-(6-(((3aR,5s,6aS)-2-((tetrahydro-2H-pyran-4-yl)methyl)octahydrocyclopenta[c]pyrrol-5-yl)amino)pyridazin-3-yl)phenyl)-2,2-difluoroacetamide]		15	4
N#CCC(=O)Nc1cc(F)c(F)c(-c2ccc(N[C@H]3C[C@@H]4CN(CC5CCOCC5)C[C@@H]4C3)nn2)c1 [Compound A16, 2-cyano-N-(3,4-difluoro-5-(6-(((3aR,5s,6aS)-2-((tetrahydro-2H-pyran-4-yl)methyl)octahydrocyclopenta[c]pyrrol-5-yl)amino)pyridazin-3-yl)phenyl)acetamide]	4	47	
CS(=O)(=O)CC(=O)Nc1cccc(-c2ccc(N[C@H]3C[C@@H]4CN(CC5CCOCC5)C[C@@H]4C3)nn2)c1 [Compound A17, 2-(Methylsulfonyl)-N-(3-(6-(((3aR,5s,6aS)-2-((tetrahydro-2H-pyran-4-yl)methyl)octahydrocyclopenta[c]pyrrol-5-yl)amino)pyridazin-3-yl)phenyl)acetamide]		2.8	3
O=C(NC12CC(C1)C2)c1cc(F)c(F)c(-c2ccc(N[C@H]3C[C@@H]4CN(CC5CCOCC5)C[C@@H]4C3)nn2)c1 [Compound A18, N-(Bicyclo[1.1.1]pentan-1-yl)-3,4-difluoro-5-(6-(((3aR,5s,6aS)-2-((tetrahydro-2H-pyran-4-yl)methyl)octahydrocyclopenta[c]pyrrol-5-yl)amino)pyridazin-3-yl)benzamide]		27	3
O=C(NC1CC(F)(F)C1)c1cc(F)c(F)c(-c2ccc(N[C@H]3C[C@@H]4CN(CC5CCOCC5)C[C@@H]4C3)nn2)c1 [Compound A19, N-(3,3-difluorocyclobutyl)-3,4-difluoro-5-(6-(((3aR,5s,6aS)-2-((tetrahydro-2H-pyran-4-yl)methyl)octahydrocyclopenta[c]pyrrol-5-yl)amino)pyridazin-3-yl)benzamide]	4	82	
O=C(c1cc(F)c(F)c(-c2ccc(N[C@H]3C[C@@H]4CN(CC5CCOCC5)C[C@@H]4C3)nn2)c1)N1CC(F)(F)C1 [Compound A20, (3,4-difluoro-5-(6-(((3aR,5s,6aS)-2-((tetrahydro-2H-pyran-4-yl)methyl)octahydrocyclopenta[c]pyrrol-5-yl)amino)pyridazin-3-yl)phenyl)(3,3-difluoroazetidin-1-yl)methanone]	4	100	
O=C(c1ccc(-c2ccc(N[C@H]3C[C@@H]4CN(CC5CCOCC5)C[C@@H]4C3)nn2)cc1)N1CCCC1 [Compound A21, Pyrrolidin-1-yl(4-(6-(((3aR,5s,6aS)-2-((tetrahydro-2H-pyran-4-yl)methyl)octahydrocyclopenta[c]pyrrol-5-yl)amino)pyridazin-3-yl)phenyl)methanone]		3.9	4
O=C(c1ccc(-c2ccc(N[C@H]3C[C@@H]4CN(CC5CCOCC5)C[C@@H]4C3)nn2)cc1)N1CCCCC1 [Compound A22, piperidin-1-yl(4-(6-(((3aR,5s,6aS)-2-((tetrahydro-2H-pyran-4-yl)methyl)octahydrocyclopenta[c]pyrrol-5-yl)amino)pyridazin-3-yl)phenyl)methanone]	4	21	
CC1(O)CN(C(=O)c2ccc(-c3ccc(N[C@H]4C[C@@H]5CN(CC6CCOCC6)C[C@@H]5C4)nn3)cc2)C1 [Compound A23, (3-hydroxy-3-methylazetidin-1-yl)(4-(6-(((3aR,5s,6aS)-2-((tetrahydro-2H-pyran-4-yl)methyl)octahydrocyclopenta[c]pyrrol-5-yl)amino)pyridazin-3-yl)phenyl)methanone]	3	15	
CCN(CC)C(=O)c1ccc(-c2ccc(N[C@H]3C[C@@H]4CN(CC5CCOCC5)C[C@@H]4C3)nn2)cc1 [Compound A24, N,N-diethyl-4-(6-(((3aR,5s,6aS)-2-((tetrahydro-2H-pyran-4-yl)methyl)octahydrocyclopenta[c]pyrrol-5-yl)amino)pyridazin-3-yl)benzamide]	4	37	
O=C(c1ccc(-c2ccc(N[C@H]3C[C@@H]4CN(CC5CCOCC5)C[C@@H]4C3)nn2)cc1)N1CCC(O)C1 (stereo partly drawn) [Compound A25, (3-hydroxypyrrolidin-1-yl)(4-(6-(((3aR,5s,6aS)-2-((tetrahydro-2H-pyran-4-yl)methyl)octahydrocyclopenta[c]pyrrol-5-yl)amino)pyridazin-3-yl)phenyl)methanone]	4	25	
